Values joined by “and” are separate entries in the source; they are usually repeats but may differ in a detail not shown here. Identical values can stand only once.
How the values were obtained:
[1] = molecular target: T1, Muscarinic acetylcholine receptor M1 (Homo sapiens, UniProt P11229)
T1 sequence (P11229 whole entry): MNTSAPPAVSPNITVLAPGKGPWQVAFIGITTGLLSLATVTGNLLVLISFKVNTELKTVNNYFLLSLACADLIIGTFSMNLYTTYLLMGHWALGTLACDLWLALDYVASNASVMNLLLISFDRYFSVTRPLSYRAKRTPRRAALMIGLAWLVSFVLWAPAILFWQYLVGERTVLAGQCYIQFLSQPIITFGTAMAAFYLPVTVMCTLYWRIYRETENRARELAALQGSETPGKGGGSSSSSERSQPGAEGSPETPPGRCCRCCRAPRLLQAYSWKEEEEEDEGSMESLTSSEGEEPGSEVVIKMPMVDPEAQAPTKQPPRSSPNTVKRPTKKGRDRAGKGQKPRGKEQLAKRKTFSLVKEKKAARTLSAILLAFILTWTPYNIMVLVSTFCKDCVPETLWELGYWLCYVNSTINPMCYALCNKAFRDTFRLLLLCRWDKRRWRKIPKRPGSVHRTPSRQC

Estrogen receptor = molecular target: T2, Estrogen receptor (Homo sapiens, UniProt P03372); assay type: functional
T2 sequence (P03372 whole entry): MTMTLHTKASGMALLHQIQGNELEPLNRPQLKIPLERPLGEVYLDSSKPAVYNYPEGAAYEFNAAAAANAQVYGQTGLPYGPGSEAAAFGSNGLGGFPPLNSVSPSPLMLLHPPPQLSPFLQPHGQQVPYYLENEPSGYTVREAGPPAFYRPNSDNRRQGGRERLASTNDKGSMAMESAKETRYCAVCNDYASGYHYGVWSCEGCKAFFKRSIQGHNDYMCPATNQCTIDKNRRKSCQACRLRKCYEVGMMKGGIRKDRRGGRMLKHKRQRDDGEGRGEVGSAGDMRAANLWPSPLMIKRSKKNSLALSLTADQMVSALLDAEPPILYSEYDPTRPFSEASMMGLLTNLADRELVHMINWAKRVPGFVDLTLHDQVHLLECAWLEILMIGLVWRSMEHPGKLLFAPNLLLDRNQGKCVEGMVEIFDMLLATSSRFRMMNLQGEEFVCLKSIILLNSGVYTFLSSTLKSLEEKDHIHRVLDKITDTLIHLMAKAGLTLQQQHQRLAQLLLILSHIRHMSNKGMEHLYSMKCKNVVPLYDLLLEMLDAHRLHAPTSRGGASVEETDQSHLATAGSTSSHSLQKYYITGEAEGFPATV

Glucocorticoid receptor = molecular target: T3, Glucocorticoid receptor (Homo sapiens, UniProt P04150); assay type: functional
T3 sequence (P04150 whole entry): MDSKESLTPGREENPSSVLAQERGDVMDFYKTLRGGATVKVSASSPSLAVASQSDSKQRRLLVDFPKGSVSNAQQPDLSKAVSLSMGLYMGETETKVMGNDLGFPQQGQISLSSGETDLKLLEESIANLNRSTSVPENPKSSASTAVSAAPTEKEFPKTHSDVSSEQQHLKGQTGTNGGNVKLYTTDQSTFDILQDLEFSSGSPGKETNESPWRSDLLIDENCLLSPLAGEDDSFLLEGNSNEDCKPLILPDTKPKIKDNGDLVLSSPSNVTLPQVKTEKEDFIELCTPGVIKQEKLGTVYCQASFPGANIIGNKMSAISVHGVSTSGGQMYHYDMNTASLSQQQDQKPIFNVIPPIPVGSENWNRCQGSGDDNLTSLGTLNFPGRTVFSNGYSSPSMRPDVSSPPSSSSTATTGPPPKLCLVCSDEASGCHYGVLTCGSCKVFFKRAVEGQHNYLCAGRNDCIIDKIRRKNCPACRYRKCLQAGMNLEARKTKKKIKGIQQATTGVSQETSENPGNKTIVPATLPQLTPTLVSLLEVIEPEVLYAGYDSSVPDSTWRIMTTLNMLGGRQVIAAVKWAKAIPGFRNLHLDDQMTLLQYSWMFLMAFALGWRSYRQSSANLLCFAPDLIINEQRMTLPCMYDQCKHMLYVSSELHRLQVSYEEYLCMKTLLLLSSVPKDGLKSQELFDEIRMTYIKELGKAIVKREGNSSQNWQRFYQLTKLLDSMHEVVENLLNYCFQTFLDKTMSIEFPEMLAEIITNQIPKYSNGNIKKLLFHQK

Estrogen receptor beta = Estrogen receptor beta (Homo sapiens, UniProt Q92731)
Chain of Estrogen receptor beta (Q92731 whole entry): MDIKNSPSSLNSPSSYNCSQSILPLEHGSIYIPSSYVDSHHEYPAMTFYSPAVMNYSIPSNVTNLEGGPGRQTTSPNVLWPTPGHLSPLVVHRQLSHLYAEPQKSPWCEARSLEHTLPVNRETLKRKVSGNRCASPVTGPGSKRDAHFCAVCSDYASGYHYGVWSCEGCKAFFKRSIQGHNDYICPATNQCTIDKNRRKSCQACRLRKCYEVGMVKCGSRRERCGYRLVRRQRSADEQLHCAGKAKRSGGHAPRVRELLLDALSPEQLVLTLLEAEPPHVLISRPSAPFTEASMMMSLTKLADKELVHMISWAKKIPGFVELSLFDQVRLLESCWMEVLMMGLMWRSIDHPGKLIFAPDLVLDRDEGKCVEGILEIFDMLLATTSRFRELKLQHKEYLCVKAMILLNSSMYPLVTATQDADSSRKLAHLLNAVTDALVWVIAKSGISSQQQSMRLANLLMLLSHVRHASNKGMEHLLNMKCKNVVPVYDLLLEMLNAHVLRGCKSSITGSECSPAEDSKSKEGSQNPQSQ

[2] = molecular target: 5-hydroxytryptamine receptor 6 (Homo sapiens, UniProt P50406)
Chain of 5-hydroxytryptamine receptor 6 (P50406 whole entry): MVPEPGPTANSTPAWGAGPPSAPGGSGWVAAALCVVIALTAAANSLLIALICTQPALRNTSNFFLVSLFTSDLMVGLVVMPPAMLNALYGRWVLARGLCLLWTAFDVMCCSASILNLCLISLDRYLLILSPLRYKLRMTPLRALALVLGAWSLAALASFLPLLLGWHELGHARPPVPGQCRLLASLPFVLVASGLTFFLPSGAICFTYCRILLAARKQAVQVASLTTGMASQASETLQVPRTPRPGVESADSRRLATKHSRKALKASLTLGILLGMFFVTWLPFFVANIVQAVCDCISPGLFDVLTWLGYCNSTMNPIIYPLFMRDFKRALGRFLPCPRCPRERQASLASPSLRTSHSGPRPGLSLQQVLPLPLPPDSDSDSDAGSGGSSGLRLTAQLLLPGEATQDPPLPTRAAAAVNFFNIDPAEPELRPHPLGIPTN

Androgen receptor = molecular target: T4, Androgen receptor (Rattus norvegicus, UniProt P15207); assay type: functional
T4 sequence (P15207 whole entry): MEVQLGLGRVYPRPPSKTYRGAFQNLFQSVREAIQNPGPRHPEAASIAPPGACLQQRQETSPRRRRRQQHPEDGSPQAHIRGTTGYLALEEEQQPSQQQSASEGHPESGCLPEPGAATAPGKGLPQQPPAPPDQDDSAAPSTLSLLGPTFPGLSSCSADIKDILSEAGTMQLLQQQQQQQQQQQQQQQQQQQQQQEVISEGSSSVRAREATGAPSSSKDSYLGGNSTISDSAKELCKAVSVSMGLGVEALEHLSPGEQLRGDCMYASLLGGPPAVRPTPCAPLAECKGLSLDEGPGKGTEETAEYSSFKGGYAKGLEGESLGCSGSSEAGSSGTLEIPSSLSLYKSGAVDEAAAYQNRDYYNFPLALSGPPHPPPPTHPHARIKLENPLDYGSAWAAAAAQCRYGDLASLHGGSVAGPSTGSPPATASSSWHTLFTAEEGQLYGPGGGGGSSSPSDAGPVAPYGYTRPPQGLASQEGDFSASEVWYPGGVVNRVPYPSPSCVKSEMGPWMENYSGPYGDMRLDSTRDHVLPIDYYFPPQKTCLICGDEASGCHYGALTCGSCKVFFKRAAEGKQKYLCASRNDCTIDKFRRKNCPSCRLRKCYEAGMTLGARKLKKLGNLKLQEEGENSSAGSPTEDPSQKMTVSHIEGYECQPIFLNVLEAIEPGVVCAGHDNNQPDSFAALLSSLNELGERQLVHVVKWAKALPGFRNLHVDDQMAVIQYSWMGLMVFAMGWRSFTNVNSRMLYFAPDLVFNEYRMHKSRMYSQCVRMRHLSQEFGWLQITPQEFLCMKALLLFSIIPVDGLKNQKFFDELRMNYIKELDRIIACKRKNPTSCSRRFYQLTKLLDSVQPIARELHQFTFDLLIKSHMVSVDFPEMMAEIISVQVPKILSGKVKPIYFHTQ

[3] = molecular target: 5-hydroxytryptamine receptor 7 (Homo sapiens, UniProt P34969)
Chain of 5-hydroxytryptamine receptor 7 (P34969 whole entry): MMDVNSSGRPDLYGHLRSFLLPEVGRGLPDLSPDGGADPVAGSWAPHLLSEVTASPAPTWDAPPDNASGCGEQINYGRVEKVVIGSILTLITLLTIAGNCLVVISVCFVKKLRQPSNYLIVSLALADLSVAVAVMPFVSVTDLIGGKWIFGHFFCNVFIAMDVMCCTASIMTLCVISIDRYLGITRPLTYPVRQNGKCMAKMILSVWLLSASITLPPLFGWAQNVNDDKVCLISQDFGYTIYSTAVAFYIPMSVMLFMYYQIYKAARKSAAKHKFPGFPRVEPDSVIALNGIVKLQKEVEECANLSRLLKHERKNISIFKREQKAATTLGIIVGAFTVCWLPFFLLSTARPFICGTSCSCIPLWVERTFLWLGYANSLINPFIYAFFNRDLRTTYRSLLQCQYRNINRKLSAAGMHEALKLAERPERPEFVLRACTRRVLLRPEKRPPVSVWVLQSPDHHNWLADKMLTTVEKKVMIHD

[4] = molecular target: Sodium channel protein type 5 subunit alpha (Homo sapiens, UniProt Q14524); assay type: functional, cell-based
Chain of Sodium channel protein type 5 subunit alpha (Q14524 whole entry): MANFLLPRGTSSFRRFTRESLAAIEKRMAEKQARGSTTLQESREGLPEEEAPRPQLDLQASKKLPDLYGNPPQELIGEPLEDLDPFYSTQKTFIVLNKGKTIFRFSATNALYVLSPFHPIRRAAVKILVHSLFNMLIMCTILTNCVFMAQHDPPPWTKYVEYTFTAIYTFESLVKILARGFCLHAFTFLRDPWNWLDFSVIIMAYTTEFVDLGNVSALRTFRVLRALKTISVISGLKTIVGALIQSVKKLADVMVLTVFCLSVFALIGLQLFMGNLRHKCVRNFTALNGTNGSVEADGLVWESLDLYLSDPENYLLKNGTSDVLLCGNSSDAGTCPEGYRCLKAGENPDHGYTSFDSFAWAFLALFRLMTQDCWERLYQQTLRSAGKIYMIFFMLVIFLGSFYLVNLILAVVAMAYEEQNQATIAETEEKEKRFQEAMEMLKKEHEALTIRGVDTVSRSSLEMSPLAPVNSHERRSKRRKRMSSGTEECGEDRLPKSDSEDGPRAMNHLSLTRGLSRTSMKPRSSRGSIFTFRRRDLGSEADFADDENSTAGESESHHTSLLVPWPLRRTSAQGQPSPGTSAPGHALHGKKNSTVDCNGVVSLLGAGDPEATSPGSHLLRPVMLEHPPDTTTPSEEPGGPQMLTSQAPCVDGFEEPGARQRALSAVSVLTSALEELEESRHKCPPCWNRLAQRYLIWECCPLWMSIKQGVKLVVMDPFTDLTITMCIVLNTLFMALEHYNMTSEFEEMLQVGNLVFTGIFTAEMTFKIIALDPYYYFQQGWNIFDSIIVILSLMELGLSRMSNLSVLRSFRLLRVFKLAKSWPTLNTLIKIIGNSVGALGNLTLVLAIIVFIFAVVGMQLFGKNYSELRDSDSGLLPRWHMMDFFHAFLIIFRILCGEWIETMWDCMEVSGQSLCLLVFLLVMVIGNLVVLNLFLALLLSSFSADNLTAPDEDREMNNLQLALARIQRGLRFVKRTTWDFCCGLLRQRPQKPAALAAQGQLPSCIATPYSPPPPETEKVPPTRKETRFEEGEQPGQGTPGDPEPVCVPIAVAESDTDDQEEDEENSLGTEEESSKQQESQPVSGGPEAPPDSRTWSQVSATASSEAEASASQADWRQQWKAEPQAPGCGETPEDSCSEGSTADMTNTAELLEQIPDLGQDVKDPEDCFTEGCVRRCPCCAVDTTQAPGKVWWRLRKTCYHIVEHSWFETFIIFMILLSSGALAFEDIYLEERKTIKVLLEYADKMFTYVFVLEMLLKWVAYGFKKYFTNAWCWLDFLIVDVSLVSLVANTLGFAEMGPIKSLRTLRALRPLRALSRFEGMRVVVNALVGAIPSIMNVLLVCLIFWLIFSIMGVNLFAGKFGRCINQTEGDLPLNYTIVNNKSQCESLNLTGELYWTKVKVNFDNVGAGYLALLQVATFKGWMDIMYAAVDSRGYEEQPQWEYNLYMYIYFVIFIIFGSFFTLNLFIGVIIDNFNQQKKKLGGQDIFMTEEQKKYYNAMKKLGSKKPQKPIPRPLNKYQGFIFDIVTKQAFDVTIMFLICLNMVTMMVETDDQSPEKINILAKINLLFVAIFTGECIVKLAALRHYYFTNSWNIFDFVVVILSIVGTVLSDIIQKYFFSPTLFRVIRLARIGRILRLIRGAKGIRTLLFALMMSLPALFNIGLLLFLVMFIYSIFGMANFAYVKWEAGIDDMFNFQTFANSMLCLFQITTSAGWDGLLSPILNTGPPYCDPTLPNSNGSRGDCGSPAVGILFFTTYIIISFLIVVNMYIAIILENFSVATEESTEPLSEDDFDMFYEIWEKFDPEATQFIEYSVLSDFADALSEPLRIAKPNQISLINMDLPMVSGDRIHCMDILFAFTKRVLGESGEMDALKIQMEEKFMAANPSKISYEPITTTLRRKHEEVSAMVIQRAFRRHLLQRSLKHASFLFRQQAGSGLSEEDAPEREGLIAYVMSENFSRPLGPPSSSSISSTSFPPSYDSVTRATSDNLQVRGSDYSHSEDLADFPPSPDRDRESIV

Histamine H1 receptor = Histamine H1 receptor (Homo sapiens, UniProt P35367); assay type: functional, cell-based
Chain of Histamine H1 receptor (P35367 whole entry): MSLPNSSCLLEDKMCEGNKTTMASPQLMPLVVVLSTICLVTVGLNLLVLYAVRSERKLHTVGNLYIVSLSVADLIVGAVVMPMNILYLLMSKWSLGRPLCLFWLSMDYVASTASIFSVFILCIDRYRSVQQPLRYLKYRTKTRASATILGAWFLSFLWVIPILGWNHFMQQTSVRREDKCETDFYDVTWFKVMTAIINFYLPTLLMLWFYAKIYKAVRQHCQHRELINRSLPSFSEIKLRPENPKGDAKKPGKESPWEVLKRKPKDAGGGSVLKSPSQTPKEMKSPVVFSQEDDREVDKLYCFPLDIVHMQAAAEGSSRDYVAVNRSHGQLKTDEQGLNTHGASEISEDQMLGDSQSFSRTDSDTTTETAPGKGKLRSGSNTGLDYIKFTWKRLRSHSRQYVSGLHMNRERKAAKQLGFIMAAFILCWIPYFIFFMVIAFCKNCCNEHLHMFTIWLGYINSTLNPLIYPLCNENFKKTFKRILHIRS
Further: assay procedure not described here.

SMILES | AC50 (Glucocorticoid receptor) [µM] | AC50 [2] [µM] | AC50 (Androgen receptor) [µM] | AC50 [3] [µM] | also measured
FC(F)(F)c1ccc(CNc2ccc(Cc3c[nH]c4ncc(Cl)cc34)cn2)cn1 [PEXIDARTINIB] |  |  |  |  | AC50 [1]: 0.3 µM
C[C@H](CCC(=O)O)[C@H]1CC[C@H]2[C@@H]3[C@@H](O)C[C@@H]4C[C@H](O)CC[C@]4(C)[C@H]3CC[C@]12C [URSODIOL] |  |  |  |  | AC50 (Estrogen receptor): > 30 µM
CC(C(=O)O)c1ccc2c(c1)[nH]c1ccc(Cl)cc12 (stereo not drawn) [CARPROFEN] | > 30 |  |  |  | 
CN(CC1(C)CCCO1)S(=O)(=O)c1ccc(Cl)c(S(N)(=O)=O)c1 (stereo not drawn) [MEFRUSIDE] |  |  |  |  | AC50 [1]: > 30 µM
COc1cc2nc(N3CCN(C(=O)C4CCCO4)CC3)nc(N)c2cc1OC (stereo not drawn) [TERAZOSIN] |  |  |  |  | AC50 (Estrogen receptor beta): > 30 µM
COc1ccccc1OCCNCC(O)COc1cccc2[nH]c3ccccc3c12 (stereo not drawn) [CARVEDILOL] |  | 1.25 | > 30 | 1.58 | AC50 (Estrogen receptor beta): > 30 µM
CCCN(CCC)C(=O)Cc1c(-c2ccc(Cl)cc2)nc2ccc(Cl)cn12 [ALPIDEM] |  | > 10 |  | > 10 | 
O=C1CN(/N=C/c2ccc(-c3ccc([N+](=O)[O-])cc3)o2)C(O)=N1 [DANTROLENE] |  |  |  |  | AC50 [4]: > 50 µM
C[C@@H](NCCCc1cccc(C(F)(F)F)c1)c1cccc2ccccc12 |  |  | > 30 |  | AC50 (Histamine H1 receptor): > 30 µM
CC(C)Cc1ccc(C(C)C(=O)O)cc1 (stereo not drawn) [IBUPROFEN] | > 30 | > 10 |  | > 10 | AC50 (Estrogen receptor beta): > 30 µM
C=CC[C@@H]1/C=C(\C)C[C@H](C)C[C@H](OC)[C@H]2O[C@@](O)(C(=O)C(=O)N3CCCC[C@H]3C(=O)O[C@H](/C(C)=C/[C@@H]3CC[C@@H](O)[C@H](OC)C3)[C@H](C)[C@@H](O)CC1=O)[C@H](C)C[C@@H]2OC [TACROLIMUS ANHYDROUS] | > 30 | > 10 | > 30 | > 10 | AC50 [4]: 45 µM and > 30 µM; AC50 (Estrogen receptor): > 30 µM; AC50 (Estrogen receptor beta): > 30 µM
CC(=O)O[C@]1(C(C)=O)CC[C@H]2[C@@H]3C=C(C)C4=CC(=O)CC[C@@H]4[C@H]3CC[C@@]21C [NOMEGESTROL ACETATE] |  |  | > 30 |  | 
Cc1onc(-c2ccccc2)c1-c1ccc(S(N)(=O)=O)cc1 [VALDECOXIB] |  | > 10 |  | > 10 | AC50 (Estrogen receptor beta): > 30 µM
C#C[C@]1(O)CC[C@H]2[C@@H]3CCC4=CC(=O)CC[C@@H]4[C@H]3C(=C)C[C@@]21CC [ETONOGESTREL] |  |  |  |  | AC50 [1]: > 30 µM
OC[C@H]1O[C@@H](c2ccc(Cl)c(Cc3ccc(O[C@H]4CCOC4)cc3)c2)[C@H](O)[C@@H](O)[C@@H]1O [EMPAGLIFLOZIN] |  |  |  |  | AC50 [4]: > 50 µM
CN1C[C@H](C(=O)N[C@]2(C)O[C@@]3(O)[C@@H]4CCCN4C(=O)[C@H](Cc4ccccc4)N3C2=O)C=C2c3cccc4[nH]cc(c34)C[C@H]21 [ERGOTAMINE] | > 30 |  |  |  | AC50 (Estrogen receptor): > 30 µM
CC(C)c1nc(N(C)S(C)(=O)=O)nc(-c2ccc(F)cc2)c1/C=C/[C@@H](O)C[C@@H](O)CC(=O)O [ROSUVASTATIN] | > 30 |  |  |  | AC50 (Histamine H1 receptor): > 30 µM; AC50 (Estrogen receptor): > 30 µM

SMILES | AC50 (Glucocorticoid receptor) [µM] | AC50 [2] [µM] | AC50 (Androgen receptor) [µM] | AC50 [3] [µM] | also measured
CCN(CC)CCNC(=O)c1c(C)[nH]c(/C=C2\C(=O)Nc3ccc(F)cc32)c1C [SUNITINIB] |  | 2.39 | 5.9 | > 30 | 
COc1ccccc1Oc1c(NS(=O)(=O)c2ccc(C(C)(C)C)cc2)nc(-c2ncccn2)nc1OCCO [BOSENTAN] | > 30 |  |  |  | AC50 (Histamine H1 receptor): > 30 µM; AC50 (Estrogen receptor beta): > 30 µM
COc1cc2nccc(Oc3ccc(NC(=O)C4(C(=O)Nc5ccc(F)cc5)CC4)cc3)c2cc1OC [CABOZANTINIB] | > 30 |  | > 30 |  | AC50 [4]: > 3 µM; AC50 (Estrogen receptor): > 30 µM
C[C@@H](Oc1cc(-c2cnn(C3CCNCC3)c2)cnc1N)c1c(Cl)ccc(F)c1Cl [CRIZOTINIB] | > 30 |  | > 30 |  | AC50 (Estrogen receptor): > 30 µM
O=C1CCc2cc(OCCCCc3nnnn3C3CCCCC3)ccc2N1 [CILOSTAZOL] |  |  |  |  | AC50 [4]: > 50 µM
COc1ccc(CC2c3cc(OC)c(OC)cc3CC[N+]2(C)CCC(=O)OCCCCCOC(=O)CC[N+]2(C)CCc3cc(OC)c(OC)cc3C2Cc2ccc(OC)c(OC)c2)cc1OC (stereo not drawn) |  |  | > 30 |  | 
CC(S)C(=O)NCC(=O)O (stereo not drawn) [TIOPRONIN] |  |  | > 30 |  | 
CCCC(CCC)C(=O)O [VALPROIC ACID] |  | > 10 |  | > 10 | 
C=C[C@H]1C[N@@]2CC[C@H]1C[C@@H]2[C@@H](O)c1ccnc2ccc(OC)cc12 [QUINIDINE] |  |  |  |  | AC50 (Histamine H1 receptor): > 30 µM
CCOC(=O)c1c(C)cc2c(CO)n[nH]c(=O)c2c1C [OXAGRELATE] |  |  |  |  | AC50 [1]: > 30 µM
CC[C@@]1(O)C(=O)OCc2c1cc1n(c2=O)Cc2cc3c([N+](=O)[O-])cccc3nc2-1 [RUBITECAN] |  |  |  |  | AC50 [1]: > 30 µM
CCN1CCN(Cc2ccc(Nc3ncc(F)c(-c4cc(F)c5nc(C)n(C(C)C)c5c4)n3)nc2)CC1 [ABEMACICLIB] | > 30 |  | > 30 |  | AC50 [4]: > 50 µM; AC50 (Estrogen receptor): > 30 µM
N[C@@H](CC(=O)N1CCn2c(nnc2C(F)(F)F)C1)Cc1cc(F)c(F)cc1F [SITAGLIPTIN] | > 30 | > 10 | > 30 | > 10 | AC50 [4]: > 150 µM; AC50 (Estrogen receptor): > 30 µM
CC(C)N(CCC(C(N)=O)(c1ccccc1)c1ccccn1)C(C)C (stereo not drawn) [DISOPYRAMIDE] |  |  |  |  | AC50 [4]: > 50 µM; AC50 (Histamine H1 receptor): > 30 µM; AC50 (Estrogen receptor beta): > 30 µM
CO[C@H]1/C=C/O[C@@]2(C)Oc3c(C)c(O)c4c(O)c(c(/C=N/N5CCN(C)CC5)c(O)c4c3C2=O)NC(=O)/C(C)=C\C=C\[C@H](C)[C@H](O)[C@@H](C)[C@@H](O)[C@@H](C)[C@H](OC(C)=O)[C@@H]1C [RIFAMPIN] |  | > 10 |  | > 10 | AC50 (Estrogen receptor beta): > 30 µM
CN(C)CCc1c[nH]c2ccc(Cn3cncn3)cc12 [RIZATRIPTAN] |  | > 10 |  | > 10 | AC50 [4]: > 30 µM; AC50 (Histamine H1 receptor): > 30 µM; AC50 (Estrogen receptor beta): > 30 µM

— ChEMBL document CHEMBL5291721, “A preclinical secondary pharmacology resource illuminates target-adverse drug reaction associations of marketed drugs” (Nat Commun, 2023)
